Starred links: 1 amine or outer side, 2 acyl side, 3 side chain; linkers in the order of their positions; H or OH if unused. Residues, ends and D or L forms follow the SMILES beside them. *: point of attachment. C20 diacid = O=C(O)CCCCCCCCCCCCCCCCCCC(=O)*; C18 diacid = O=C(O)CCCCCCCCCCCCCCCCC(=O)*; γGlu = O=C(O)[C@H](CCC(=O)[*:2])N[*:1]
Legend:
[1] = target: T1, human amylin receptor (hAMYR3) (Homo sapiens, UniProt O60896+P30988); experiment: Human amylin receptor (hAMYR3) in vitro potency assay, CRE-luciferase reporter in BHK cells; assay type: cell-based; settings: BHK hAMYR3/CRE-Luc cells, 3 hours incubation, assay buffer with 1% ovalbumin
T1 construct: host or cells: BHK (Baby Hamster Kidney), Hollex-1 cell line further transfected with RAMP3
Source text: (§1) Activation of hAMYR3 leads to increased cellular concentrations of cAMP. Consequently, transcription is activated by promotors containing multiple copies of the CAMP response element (CRE). It is thus possible to measure hAMYR3 activity using a CRE-luciferase reporter gene introduced into Baby Hamster Kidney (BHK) cells co-expressing the hAMYR3.
A BHK cell line was stably transfected with the human calcitonin receptor (a) and a CRE-responsive luciferase (CRE-Luc) reporter gene according to methods known to the person skilled in the art (Hollex-1 cell line, obtained from Zymogenetics described in U.S. Pat. No. 5,622,839). The cell line was further transfected with human receptor modifying protein 3 (RAMP3) using standard methods. This turns the human calcitonin receptor into a human amylin-3(a) receptor.
(§2) Cells stocks were prepared by culturing of the stably transfected BHK hAMYR3/CRE-Luc cell line in growth medium consisting of DMEM (Gibco, 31966-021) supplemented with 10% FBS (Gibco, 16140-071), 1% Pen/Strep (Gibco, 15140-122), 0.5 mg/mL Geneticin (Gibco, 10131-027), 0.4 mg/mL Hygromycin (Invitrogen, 10687010) and 250 nM Methotrexate (Sigma, A6770). Cells at approximately 80-90% confluence were washed once with PBS (Gibco 14190-094) and loosened from the cell flasks with Versene (Gibco, 15040-033) or TrypLE™ (Gibco, 12605-010). After centrifugation, the cell pellet was dissolved and diluted to approximately 2.5×10E6 cells/mL in Recovery™ Cell Culture Freezing Medium (Gibco, 12648-010). Cells were aliquoted and stored at −180° C. until use.
(§3) The assay buffer consisted of DMEM without phenol red (Gibco, 11880-028) supplemented with 1× GlutaMAX (Gibco, 35050-038), 10 mM HEPES (Gibco, 15630-056) and 1% (w/v) ovalbumin (Sigma, A5503).
(§4) To perform the assay, BHK hAMYR3/CRE-Luc cells were thawed, washed once in PBS and seeded in 40 μL growth medium in a white 384-well culture plate (PerkinElmer, 6007688) at a cell density of 4.000 cells/well on the day before the experiment. The plate was incubated over night at 37° C. in 5% CO2. On the day of the assay, cells were washed once in assay buffer. Serial dilutions (7-fold dilutions, 7 concentrations Pr. compound and one well containing only assay buffer) of comparator compounds and amylin analogues were performed in assay buffer often starting from approximately 10 nM in 96-well plates and 30 μL of each concentration added to the 384-well assay plate with cells. The assay plate was incubated for 3 hours at 37° C. in 5% CO2 after which 30 μL SteadyLite Plus (PerkinElmer, 6066759) was added to each well. The assay plate was sealed, incubated at room temperature with gentle shaking for 5 minutes followed by 30 minutes incubation without shaking while protected from light. Luminescence was detected on a luminescence plate reader e.g. a Synergy 2 (BioTek).

[2] = target: T2, human calcitonin receptor (hCTR) (Homo sapiens, UniProt P30988); experiment: Human calcitonin receptor (hCTR) in vitro potency assay, CRE-luciferase reporter in BHK cells; assay type: cell-based; settings: BHK hCTR/CRE-Luc cells, 3 hours incubation, assay buffer with 1% ovalbumin; read-out: hCalcR potency, EC50
T2 construct: host or cells: BHK (Baby Hamster Kidney), Hollex-1 cell line
T2 sequence (P30988 25-474): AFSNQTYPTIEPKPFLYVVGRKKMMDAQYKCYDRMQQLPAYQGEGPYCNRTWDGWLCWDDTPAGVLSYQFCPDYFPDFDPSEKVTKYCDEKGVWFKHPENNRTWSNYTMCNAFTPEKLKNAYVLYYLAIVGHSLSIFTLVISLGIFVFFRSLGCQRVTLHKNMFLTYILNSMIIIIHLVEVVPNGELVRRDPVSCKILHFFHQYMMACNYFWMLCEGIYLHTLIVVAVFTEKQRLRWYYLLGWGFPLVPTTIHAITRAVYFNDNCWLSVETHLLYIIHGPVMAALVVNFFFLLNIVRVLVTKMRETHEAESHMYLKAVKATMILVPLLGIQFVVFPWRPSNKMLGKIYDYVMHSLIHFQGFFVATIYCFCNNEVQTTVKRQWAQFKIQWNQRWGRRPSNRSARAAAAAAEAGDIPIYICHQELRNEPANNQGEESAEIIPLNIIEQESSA
Source text: as §1, with “hCTR” for “hAMYR3”, “CAMP.” for “cAMP.”, “hCTR.” for “hAMYR3.”
A BHK cell line was stably transfected with the human calcitonin receptor (a) and a CRE-responsive luciferase (CRE-Luc) reporter gene according to methods known to the person skilled in the art (Hollex-1 cell line, obtained from Zymogenetics described in U.S. Pat. No. 5,622,839).
as §2, with “hCTR/CRE-Luc” for “hAMYR3/CRE-Luc”, “10131-027)” for “10131-027), 0.4 mg/mL Hygromycin (Invitrogen, 10687010)”
as §3
as §4, with “hCTR/CRE-Luc” for “hAMYR3/CRE-Luc”

T1 sequence (O60896 24-148, one chain of several): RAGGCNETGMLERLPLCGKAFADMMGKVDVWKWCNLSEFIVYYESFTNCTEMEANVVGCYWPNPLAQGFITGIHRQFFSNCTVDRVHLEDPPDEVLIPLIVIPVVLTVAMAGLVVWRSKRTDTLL

## CC[C@H](C)[C@H](NC(=O)[C@@H]1CCCN1C(=O)CNC(=O)[C@H](Cc1ccccc1)NC(=O)[C@H](Cc1c[nH]cn1)NC(=O)[C@H](Cc1c[nH]cn1)NC(=O)[C@H](CC(C)C)NC(=O)[C@H](Cc1ccccc1)NC(=O)[C@H](CCC(=O)O)NC(=O)[C@H](C)NC(=O)[C@H](CC(C)C)NC(=O)[C@H](CCCNC(=N)N)NC(=O)[C@H](CCC(N)=O)NC(=O)[C@@H](NC(=O)[C@H](CCC(N)=O)NC(=O)[C@H](C)NC(=O)[C@@H](NC(=O)[C@H](CO)NC(=O)[C@H](CC(C)C)NC(=O)[C@H](Cc1c[nH]cn1)NC(=O)[C@H](CO)NC(=O)[C@H](C)NC(=O)CC[C@H](NC(=O)CC[C@H](NC(=O)CCCCCCCCCCCCCCCCC(=O)O)C(=O)O)C(=O)O)[C@@H](C)O)[C@@H](C)O)C(=O)N[C@@H](CC(C)C)C(=O)N1CCC[C@H]1C(=O)N1CCC[C@H]1C(=O)N[C@H](C(=O)N[C@@H](CC(=O)O)C(=O)N[C@H](C(=O)NCC(=O)N[C@@H](CO)C(=O)N[C@@H](CCC(=O)O)C(=O)N[C@H](C(=O)N1CCC[C@H]1C(N)=O)[C@@H](C)O)C(C)C)[C@@H](C)O [Compound 31, N^1-[(4S)-4-carboxy-4-[[(4S)-4-carboxy-4-(17-carboxyheptadecanoylamino)butanoyl]amino]butanoyl]-[Ala1,Ser2,His3,Leu4,Ser5,Ala7,Gln8,Glu14,His17,Pro25,Pro28,Pro29,Asp31,Glu35,Pro37],des-(19-22)-human amylin] ({C18 diacid-γGlu-γGlu}-ASHLSTAQTQRLAEFLHHFGPILPPTDVGSETP-NH2)
[1]
  EC50: 2.03 pM
[2]
  EC50: 2.13 pM

## CC[C@H](C)[C@H](NC(=O)[C@@H]1CCCN1C(=O)CNC(=O)[C@H](Cc1ccccc1)NC(=O)[C@H](CC(N)=O)NC(=O)[C@H](CC(=O)O)NC(=O)[C@H](CO)NC(=O)[C@H](CO)NC(=O)[C@H](Cc1c[nH]cn1)NC(=O)[C@H](Cc1c[nH]cn1)NC(=O)[C@H](CC(C)C)NC(=O)[C@H](Cc1ccccc1)NC(=O)[C@H](CCC(=O)O)NC(=O)[C@H](C)NC(=O)[C@H](CC(C)C)NC(=O)[C@H](CCCNC(=N)N)NC(=O)[C@H](CCC(N)=O)NC(=O)[C@@H](NC(=O)[C@H](CCC(N)=O)NC(=O)[C@H](C)NC(=O)[C@@H](NC(=O)[C@H](CO)NC(=O)[C@H](CC(C)C)NC(=O)[C@H](Cc1c[nH]cn1)NC(=O)[C@H](CO)NC(=O)[C@H](C)NC(=O)CC[C@H](NC(=O)CCCCCCCCCCCCCCCCCCC(=O)O)C(=O)O)[C@@H](C)O)[C@@H](C)O)C(=O)N[C@@H](CC(C)C)C(=O)N1CCC[C@H]1C(=O)N1CCC[C@H]1C(=O)N[C@H](C(=O)N[C@@H](CC(=O)O)C(=O)N[C@H](C(=O)NCC(=O)N[C@@H](CO)C(=O)N[C@@H](CC(N)=O)C(=O)N[C@H](C(=O)N1CCC[C@H]1C(N)=O)[C@@H](C)O)C(C)C)[C@@H](C)O [Compound 3, N^1-[(4S)-4-carboxy-4-(19-carboxynonadecanoylamino)butanoyl]-[Ala1,Ser2,His3,Leu4,Ser5,Ala7,Gln8,Glu14,His17,Asp21,Pro25,Pro28,Pro29,Asp31,Pro37]-human amylin] ({C20 diacid-γGlu}-ASHLSTAQTQRLAEFLHHSSDNFGPILPPTDVGSNTP-NH2)
[2]
  EC50: 1.3 pM

## CC[C@H](C)[C@H](NC(=O)[C@H](C)NC(=O)CNC(=O)[C@H](Cc1ccccc1)NC(=O)[C@@H]1CCCN1C(=O)[C@H](CC(=O)O)NC(=O)[C@H](CO)NC(=O)[C@H](CO)NC(=O)[C@H](Cc1c[nH]cn1)NC(=O)[C@H](Cc1c[nH]cn1)NC(=O)[C@H](CC(C)C)NC(=O)[C@H](Cc1ccccc1)NC(=O)[C@H](CCC(=O)O)NC(=O)[C@H](C)NC(=O)[C@H](CC(C)C)NC(=O)[C@H](CCCNC(=N)N)NC(=O)[C@H](CCC(N)=O)NC(=O)[C@@H](NC(=O)[C@H](CCC(N)=O)NC(=O)[C@H](C)NC(=O)[C@@H](NC(=O)[C@H](CO)NC(=O)[C@H](CC(C)C)NC(=O)[C@H](Cc1c[nH]cn1)NC(=O)[C@H](CO)NC(=O)[C@H](C)NC(=O)CC[C@H](NC(=O)CCCCCCCCCCCCCCCCCCC(=O)O)C(=O)O)[C@@H](C)O)[C@@H](C)O)C(=O)N1CCC[C@H]1C(=O)N[C@@H](CO)C(=O)N[C@@H](CO)C(=O)N[C@H](C(=O)N[C@@H](CC(=O)O)C(=O)N[C@H](C(=O)NCC(=O)N1CCC[C@H]1C(=O)N[C@@H](CC(=O)O)C(=O)N[C@H](C(=O)N1CCC[C@H]1C(N)=O)[C@@H](C)O)C(C)C)[C@@H](C)O [Compound 6, N^1-[(4S)-4-carboxy-4-(19-carboxynonadecanoylamino)butanoyl]-[Ala1,Ser2,His3,Leu4,Ser5,Ala7,Gln8,Glu14,His17,Asp21,Pro22,Pro27,Asp31,Pro34,Asp35,Pro37]-human amylin] ({C20 diacid-γGlu}-ASHLSTAQTQRLAEFLHHSSDPFGAIPSSTDVGPDTP-NH2)
[2]
  EC50: 1.25 pM

— US12116388B2, “Amylin receptor agonists” (Novo Nordisk A/S, priority 2022, dated 2024)
